The text below walks through data of PubChem BioAssay (NCI).

Holding throughout (assay): DTP human tumour cell line panel, 48 h
Experiment [1] concerns HOP-92 NSCLC.
The subject of experiment [2] is NCI-H522 lung.
The subject of experiment [3] is SF-268 CNS.
In experiment [4] the test system is HT29 colon.
The subject of experiment [5] is HCT-15 colon.
Experiment [6] concerns NCI/ADR-RES ovarian.
Experiment [7] concerns SNB-19 CNS.
Experiment [8] concerns SF-295 CNS.
The test system of experiment [9] is OVCAR-3 ovarian.
The subject of experiment [10] is RPMI-8226 leukemia.

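In this assay, cells in 96-well plates receive the compound at five concentrations for 48 hours. Endpoints are linearly interpolated between the surrounding concentrations. GI50: concentration for 50% inhibition of growth. The concentration for full growth arrest is given as TGI.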

As usually defined, the GI50 is the concentration that inhibits growth by half. In general, TGI refers to the concentration at which net growth stops. Higher therefore signals less potent growth arrest. Turning to `COC(=O)/C=C/c1cc(OC)c2c(c1)[C@@H](C(=O)OC)[C@H](c1ccc(OC)c(OC)c1)O2`, the GI50 in [1] is 13.1 µM; in [2], 1.44 µM; in experiment [3], 2.91 µM; in [4], 0.505 µM; in experiment [5], 0.486 µM; in [6], 0.768 µM. Further, the GI50 is 8.64 µM in experiment [7] and 0.715 µM in [8]. The TGI in [1], in experiment [2], in experiment [3], in experiment [4], in experiment [5] and in experiment [6] was > 100 µM each time. Also, the TGI in experiment [7] and in experiment [8] was > 100 µM throughout.
Turning to `COc1cc(/C=C/C(=O)c2ccc(SC)cc2)cc(OC)c1OC`, the GI50 in experiment [1] is 32.9 µM; in [2], 8.82 µM; in experiment [3], 16 µM; in [4], 4.15 µM; in experiment [5], 3.6 µM; in experiment [6], 4.68 µM. The GI50 was 10.9 µM in experiment [9], 3.9 µM in experiment [10] and 12.6 µM in experiment [7]. Also, the TGI in experiment [1] was > 100 µM; in experiment [2], 23.8 µM; in experiment [3] it was 37.8 µM; in [4], 24.4 µM; in experiment [5], 14.4 µM; in [6], 26.4 µM. The TGI was 23.8 µM in [9], > 100 µM in [10] and 26.4 µM in [7].
On to `Cc1cnc2n(c1=O)Cc1ccccc1CO2`, for which the GI50 in experiment [1] was 19.3 µM; in experiment [2], 3.8 µM; in [3], 20.3 µM; in experiment [4] it was 26.3 µM; in [5] it was 17.1 µM; in experiment [6], 22.7 µM. For the same molecule, the GI50 in experiment [9] is 16.6 µM; in [10], 13.1 µM; in experiment [7] it was 21.7 µM; in experiment [8], 33.2 µM. Moreover, the TGI in [1] was found to be 44.3 µM; in [2], 18.8 µM; in experiment [3], 67.6 µM; in experiment [4], 96.9 µM; in [5], 33.8 µM; in experiment [6], 71.4 µM. Besides, the TGI is 34.3 µM in experiment [9], 41 µM in [10], 61.6 µM in experiment [7] and > 100 µM in [8].
Regarding `C=C(C=O)[C@@H]1CC=C(C=O)CC1`, the GI50 in [1] is 2.38 µM; in [2] it was 37.8 µM; in experiment [3], 2.94 µM; in experiment [4], 3.54 µM; in experiment [5], 2.4 µM; in experiment [6] it was 3.89 µM. Besides, the values for the GI50 in [10], in experiment [7] and in [8] were 2.14 µM, 17.4 µM and 12 µM, respectively. The TGI is 7.58 µM in experiment [1]; > 100 µM in experiment [2]; 16.1 µM in experiment [3]; > 100 µM in [4]; 10.1 µM in [5]; > 100 µM in [6]. For the same molecule, the results for the TGI in experiment [10], in experiment [7] and in [8] were 6.63 µM, 71.2 µM and 97.3 µM, respectively.
As to `COc1ccc(/C=N/C2=C(C#N)C(c3ccccc3)c3ccc4ccccc4c3O2)cc1` (stereo unspecified), the GI50 is 0.439 µM in experiment [1]; 0.128 µM in [2]; 1.65 µM in experiment [3]; 0.53 µM in experiment [4]; 0.509 µM in experiment [5]; 0.262 µM in [6]. Besides, the GI50 is 0.343 µM in experiment [9], 0.383 µM in experiment [10], 0.54 µM in [7] and 0.314 µM in [8]. Besides, the TGI in experiment [1] was > 44 µM; in [2], 5.5 µM; in [3], > 100 µM; in experiment [4], > 100 µM; in experiment [5], > 100 µM; in experiment [9] it was > 100 µM. Further, the TGI in [10] is > 38 µM; in experiment [7], > 100 µM; in experiment [8], > 100 µM.
Turning to `CCc1cc(Cc2cc(CC)cc(C(C)(C)C)c2O)c(O)c(C(C)(C)C)c1`, the GI50 was 2.25 µM in experiment [1]; 2.38 µM in experiment [2]; 3.4 µM in experiment [3]; 2.9 µM in experiment [4]; 3.13 µM in [5]; 3.94 µM in experiment [6]. In addition, the GI50 in experiment [9] was 2.2 µM; in experiment [10] it was 3.35 µM; in experiment [7] it was 3.13 µM; in [8] it was 2.06 µM. Further, the TGI in experiment [1] stood at 7.97 µM; in [2], 8.29 µM; in experiment [3] it was 12.6 µM; in experiment [4], 11.5 µM; in [5], 11 µM; in experiment [6], 14.7 µM. Further, the TGI in experiment [9] amounted to 5.33 µM; in experiment [10], 28.4 µM; in [7], 11.8 µM; in [8] it was 4.88 µM.
Turning to `COc1ccc2nc3c(cc2c1)C(=O)CC(C(F)(F)F)C3` (stereo unspecified), the GI50 in experiment [1] was 2.8 µM; in experiment [2], 0.49 µM; in [3], 34.6 µM; in [4], 0.433 µM; in experiment [5] it was 1.28 µM; in experiment [6], 0.367 µM. The GI50 was 1.65 µM in experiment [9], 13.7 µM in experiment [10], 3.61 µM in experiment [7] and 1.41 µM in [8]. Further, the total growth inhibition concentration (TGI) was 94.2 µM in experiment [1]; > 100 µM in experiment [2]; > 100 µM in experiment [3]; > 100 µM in experiment [4]; > 100 µM in experiment [5]; > 100 µM in experiment [6]. Besides, the TGI in [9] was 6.89 µM; in experiment [10] it was > 100 µM; in experiment [7] it was > 100 µM; in experiment [8], 23.3 µM.
As to `Nc1c(C(=O)Nc2cccc3ccccc23)sc2nc3c(cc12)CCCCCC3`, the GI50 is 6.58 µM in [1]; 0.865 µM in experiment [2]; 2.77 µM in [3]; 1.67 µM in experiment [4]; 0.772 µM in experiment [5]; 0.784 µM in experiment [6]. Moreover, the GI50 in experiment [9] was 0.979 µM; in [10], 2.03 µM; in [7], 2.62 µM; in [8], 1.39 µM. Further, the TGI in experiment [1] is > 50 µM; in experiment [2], 4.33 µM; in experiment [3], > 50 µM; in experiment [4], 5.58 µM; in [5], > 50 µM; in experiment [6] it was > 50 µM. For the same molecule, the TGI in experiment [9] is 2.8 µM; in [10] it was > 50 µM; in experiment [7] it was > 50 µM; in experiment [8], > 50 µM.
